Holding throughout (assay): NCI anticancer screen, dose series, 48 h
Test [1] has as its system 786-0.
In test [2] the test system is A498.
In test [3] the test system is CCRF-CEM.
The subject of test [4] is HCT-116.
The subject of test [5] is HL-60.
The subject of test [6] is K562.
Test [7] relates to MOLT-4.
Test [8] concerns NCI-H23.
The subject of test [9] is OVCAR-4.
The test system of test [10] is OVCAR-5.
Test [11] concerns OVCAR-8.
Test [12] concerns SF-268.
Test [13] deals with SF-539.
Test [14] has as its system SK-MEL-28.
Test [15] concerns SNB-75.
Test [16] has as its system CAKI-1.
For test [17], the system named is NCI-H522.

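Where inhibition never reached the appropriate level, the endpoint shown equals the highest concentration tested. Otherwise, values were interpolated linearly from a five-concentration, 48-hour dose response in 96-well plates. The concentration for 50% growth inhibition is given as GI50.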 Calls of active or inactive are those of the source. No stated cut-off is given here; in the data, active = GI50 up to about 1.1 µM and inactive = higher.

In the case of `Cc1ccc(Oc2ccc(C)cc2N)cc1`, the GI50 in test [1] was 86.9 µM (inactive); in test [2] it was > 100 µM (inactive); in test [3] it was 41.6 µM (inactive); in [4], > 100 µM (inactive); in test [5], 33.9 µM (inactive); in [6] it was 60.8 µM (inactive). The GI50 was 53 µM (inactive) in [7]; 94.4 µM (inactive) in test [8]; 68.9 µM (inactive) in [9]; 68.4 µM (inactive) in [10]; > 100 µM (inactive) in test [11]; 97.7 µM (inactive) in test [12]. The figures for the GI50 in test [13], in [14] and in [15] were > 100 µM (inactive), > 100 µM (inactive) and 16.5 µM (inactive), respectively.
Turning to `CC1=NN(C(=O)Cc2ccccc2)C(=O)/C1=C\c1ccco1`, the GI50 in [1], in test [16], in test [3], in test [4], in test [5] and in test [6] was > 100 µM (inactive) in each case. Besides, the GI50 in [7], in test [8], in [17], in [9], in [10] and in test [11] was > 100 µM (inactive) throughout. Moreover, the GI50 in test [12], in [13], in [14] and in test [15] was > 100 µM (inactive) each time.
For `COc1ccc(C(=O)Cc2c(C(=O)c3ccccc3)c3ccccc3n2C(=O)c2ccccc2)cc1`, the GI50 in test [1] was > 100 µM (inactive); in test [16] it was > 100 µM (inactive); in [3], 46.6 µM (inactive); in [4] it was 37.2 µM (inactive); in [5], 38.3 µM (inactive); in [6] it was 51.3 µM (inactive). Also, the GI50 in test [7] was 25.6 µM (inactive); in test [8] it was 50.2 µM (inactive); in [17], 47.1 µM (inactive); in test [9], 32.2 µM (inactive); in test [10] it was > 100 µM (inactive); in test [11], > 100 µM (inactive). The GI50 was > 100 µM (inactive) in test [12], > 100 µM (inactive) in test [13], > 100 µM (inactive) in [14] and 18.3 µM (inactive) in test [15].
With `COCCOCOC(CCCCO)c1cc(C)c(O[Si](C)(C)C(C)(C)C)c(C)c1` (stereo not given), the GI50 in [1] is 11.1 µM (inactive); in [2], 12.4 µM (inactive); in test [3] it was 4.39 µM (inactive); in test [5], 1.59 µM (inactive); in [6], 3.22 µM (inactive); in [7], 2.86 µM (inactive). The GI50 in [8] is 5.55 µM (inactive); in test [17], 1.64 µM (inactive); in test [10], 13.7 µM (inactive); in test [11], 5.01 µM (inactive); in [12], 6.05 µM (inactive); in [13], 12.4 µM (inactive). The values for the GI50 in test [14] and in [15] were 12.3 µM (inactive) and 10.6 µM (inactive), respectively.
In the case of `BrC1(Br)C2/C=C\CCCCC21` (stereo not given), the GI50 in [1], in [2], in test [16], in test [3], in [4] and in test [5] was > 100 µM (inactive) each time. For the same compound, the GI50 in test [6], in [7], in [8], in test [17], in [9] and in [10] was > 100 µM (inactive) each time. Further, the GI50 in [11], in test [12], in test [13] and in test [14] was > 100 µM (inactive) throughout.
On to `COc1ccc2oc3c4c2c1CCC4CCC3=O` (stereo not given), for which the GI50 in test [1] is > 100 µM (inactive); in test [2], 6.75 µM (inactive); in test [3], > 100 µM (inactive); in test [5] it was > 100 µM (inactive); in test [6] it was > 100 µM (inactive); in test [7], 52.8 µM (inactive). Further, the GI50 was > 100 µM (inactive) in test [8]; 58.2 µM (inactive) in test [17]; 33 µM (inactive) in test [9]; > 100 µM (inactive) in test [10]; 59.4 µM (inactive) in test [11]; 85.9 µM (inactive) in test [12]. The results for the GI50 in [13], in test [14] and in [15] were > 100 µM (inactive), > 100 µM (inactive) and 28.1 µM (inactive), respectively.
`CC1C2=CC=C(O2)C(C)(C)C2=CC=C(O2)C(C)(C)C2=CC=C(O2)C(C)(C)C2=CC=C1O2`: the GI50 in test [1], in test [2], in [16], in test [3], in test [4] and in [5] was > 100 µM (inactive) in each case. Moreover, the GI50 in test [6], in test [7], in [8], in [17], in test [9] and in test [10] was > 100 µM (inactive) each time. For the same compound, the GI50 in test [11], in test [12], in test [13] and in test [14] was > 100 µM (inactive) throughout.
For the compound `O=[N+]([O-])c1cccc(C2=NOC3C4CCC(C4)C23)c1` (stereo not given), the GI50 in [1], in test [2], in test [4], in test [7], in test [8] and in test [17] was > 100 µM (inactive) throughout. The GI50 in [9], in test [10], in test [11], in test [12], in test [13] and in test [14] was > 100 µM (inactive) each time. Moreover, the GI50 in [15] was > 100 µM (inactive).
As to `O=C(O)CNS(=O)(=O)c1ccc(NCc2ccccc2)cc1`, the GI50 in [1], in test [16], in [3], in test [4], in test [6] and in [7] was > 100 µM (inactive) in each case. The GI50 in [8], in test [17], in test [9], in test [10], in [11] and in [12] was > 100 µM (inactive) in each case. Also, the GI50 in test [13], in test [14] and in test [15] was > 100 µM (inactive) in each case.
With `CN(C)CCNC(=O)c1cccc2c1nc(-c1ccncc1)c1ccccc12`, the GI50 in [1] is 3.66 µM (inactive); in test [2], 1.15 µM (inactive); in test [16], 1.81 µM (inactive); in test [3] it was 2.4 µM (inactive); in test [4] it was 1.46 µM (inactive); in test [5], 1.36 µM (inactive). The GI50 in [6] was 3.14 µM (inactive); in test [7], 0.0316 µM (active); in test [8], 3.07 µM (inactive); in test [9], 4.01 µM (inactive); in [10] it was 4.88 µM (inactive); in test [11], 3.06 µM (inactive). For the same compound, the GI50 in test [12] is 5.53 µM (inactive); in test [13] it was 2.03 µM (inactive); in test [14], 5.15 µM (inactive); in test [15], 3.36 µM (inactive).
On to `Oc1cc(-c2ccccn2)nc2cccc(F)c12`, for which the GI50 in test [1], in [3], in test [5], in test [6], in test [7] and in test [8] was > 100 µM (inactive) in each case. Further, the GI50 is > 100 µM (inactive) in [17]; > 100 µM (inactive) in test [9]; > 100 µM (inactive) in test [10]; > 100 µM (inactive) in [11]; > 100 µM (inactive) in [13]; 0.644 µM (active) in test [14]. Besides, the GI50 in test [15] is 51.4 µM (inactive).
For the compound `C#CCN(N=O)C(=O)NC(CCCCNC(=O)OCc1ccccc1)C(=O)OCc1ccccc1` (stereo not given), the GI50 is 17.8 µM (inactive) in test [1]; > 100 µM (inactive) in test [2]; 17.5 µM (inactive) in [3]; 33.8 µM (inactive) in test [4]; 17.3 µM (inactive) in test [5]; 20.5 µM (inactive) in test [6]. Also, the GI50 is 16.8 µM (inactive) in test [7]; 67.6 µM (inactive) in test [8]; 13.9 µM (inactive) in [17]; 24.7 µM (inactive) in test [9]; 24.5 µM (inactive) in test [10]; 17.4 µM (inactive) in [11]. Besides, the GI50 in [12] is 47 µM (inactive); in [14], 26.1 µM (inactive); in test [15], 33.5 µM (inactive).
Consider `CCCN1CC=CCC1`, for which the GI50 was > 100 µM (inactive) in test [1]; > 100 µM (inactive) in test [2]; 2.09 µM (inactive) in [3]; > 100 µM (inactive) in [4]; > 100 µM (inactive) in test [5]; < 0.01 µM (active) in [6]. Besides, the GI50 in [7], in test [8], in test [17], in [10], in [11] and in test [12] was > 100 µM (inactive) throughout. Also, the GI50 in [13], in test [14] and in [15] was > 100 µM (inactive) throughout.

Values taken from ChEMBL document CHEMBL1201862, “PubChem BioAssay data set” (2004).
